Assay results reported in patent US20040259184A1, “Fluorescent methods for the high-throughput quantification of tartrate-resistant acid phosphatase (TRAP)” (Pharmacia Corporation, priority 2003, published 2004).

How the values were obtained:
[1] = test system: OCL differentiated from RAW 264.7 monocyte-macrophage cells; assay: Automated OCL counting assay (size and TRAP-intensity selected cells, ArrayScan); type: cell-based; settings: day 6, FIG. 5
Method: (§1) RAW (RAW 264.7 monocyte-macrophage) RAW (ATTC, Manassas, Va.) cells were maintained in culture using DMEM (Dulbecco's Modified Eagle Medium) media containing L-glutamine at 584 mg/L, 1% penicillin/streptomycin, and 10% FBS (fetal bovine serum). For osteoclast differentiation RAW cells were put down onto 96 well plates at a density of 1,000 cells per well in alpha MEM (Minimum Essential Medium) media containing L-glutamine at 292 mg/L, 1% penicillin/streptomycin, 10% FBS, soluble RANKL (PeproTech, Rocky Hill, N.J.) at 10 ng/ml, and M-CSF (Cell Sciences, Norwood, Mass.) at 25 ng/ml. All media were changed every two days. For experiments with compounds, the compounds were added at the time of plating the cells in differentiation media. Additionally compounds were replenished during every media change leading up to the day 6 termination of the experiment.
(§2) Media was removed and cells were fixed onto their plated surface with 4% formaldehyde (Sigma, Saint Louis, Mo.) in PBS (Phosphate Buffer Saline) solution for 20 minutes. After fixing, cells were permeablized in PBS with 0.1% Tween (Sigma, Saint Louis, Mo.) for 15 minutes. Cells were then incubated with 200 uM of ELF 97 phosphatase substrate (Molecular Probes, Eugene, Oreg.) for 15 minutes in a 3.4 mM acetate buffered solution (pH 5.0) containing 6.7 mM Tartrate (Sigma, Saint Louis, Mo.). These conditions (of slightly acidic pH and high concentrations of tartrate) discriminate TRAP activity from other phosphatases. Cells were then washed twice with PBS (pH 7.4). After the final wash, plates were immediately quantified for TRAP activity.
(§3) Quantification of TRAP TRAP activity per well was quantified on a SpetraFluor Plus (Tecan, Research Triangle Park, N.C.) using an excitation of 360 nm and an emission of 550 nm using the optimal gain function. For quantification of the number of OCL, PI (propidium iodide) (Sigma, Saint Louis, Mo.) at a final concentration of 10 ug/ml was added to the TRAP stained cells to nonspecifically stain the cells. After PI staining the 96 well plates were analyzed using an ArrayScanII (Cellomics, Pittsburgh, Pa.) on the Nuclear Translocation software. In this Nuclear Translocation software analysis, the cytoplasmic image area is not used while the nuclear image area is expanded to encompass the entire PI stained cellular area. Cell size selection was performed through nuclear size selection criteria within Channel 1 of the Nuclear Translocation software package. TRAP intensity selection was performed through total fluorescence intensity utilizing Channel 2.
The determination of differentiation into OCL is typically based upon morphological criteria along with staining for TRAP. […] Therefore, basing differentiation solely upon per well TRAP activity could lead to a false positive reading. To circumvent this limitation we developed an automated approach to quantify the number of OCL based upon the size of the cells in addition to TRAP activity. Due to the limitations of the software analyses, the size of the cells were used in place of number of nuclei as a selection criteria for OCL formation. The size of the cells typically correlates with cell fusion and the number of nuclei. Also while some single nucleated cells can also be large in size, these cells typically tend not to be TRAP positive. The data capture was performed using the Cellomics ArrayScan 11, which is an automated fluorescent microscope and plate handler. The data analyses were performed by using the Cellomic's “Nuclear Translocation” imaging analysis software.

[2] = test system: TRAP activity in RAW 264.7 monocyte-macrophage cells differentiated into OCL; assay: Fluorescent per-well TRAP activity assay in RAW cells differentiated into OCL; type: cell-based; settings: for Effect on TRAP activity: day 6; for Effect on detection of TRAP fluorescence: up to 10.0 uM; for Effect on detection of TRAP fluorescence / Compound amount at which decrease of TRAP fluorescence is maximal / Compound amount at which dramatic decrease of TRAP fluorescence starts / Inhibition of TRAP activity (result in words): day 6, FIG. 4; for Inhibition of TRAP activity (result in words): IC50's comparable to previously published data
Method: as §1, §2, §3

OCL formation = settings: previously published data (Matsumoto 2000; Kumar 2001); read-out: IC50 of dose dependent inhibition of OCL formation; cited from earlier work

Compound	Compound amount at which decrease in quantity of TRAP positive cells counted starts [1] [µM]	Concentration at which decrease in TRAP positive cells counted is maximal (near zero amounts) [1] [µM]	Effect on the number of OCL [1]	Effect on TRAP activity [2]	Effect on detection of TRAP fluorescence [2]	IC50 (OCL formation) [µM]	Compound amount at which decrease of TRAP fluorescence is maximal [2] [µM]	Compound amount at which dramatic decrease of TRAP fluorescence starts [2] [µM]	Inhibition of TRAP activity (result in words) [2]	Effect on number of TRAP positive cells counted ([1]; at 10.0 uM)
CCc1nc(-c2ccc(OC)cc2)[nH]c1-c1ccncc1 [SB202474]	0.3	10.0	little effect	little effect	did not significantly inhibit	–	–	–	–	–
Oc1ccc(-c2nc(-c3ccc(F)cc3)c(-c3ccncc3)[nH]2)cc1 [SB202190]	–	–	–	–	–	1	10.0	1.0	dose dependent inhibition of TRAP activity	–
COc1cccc(-c2cc(=O)c3ccccc3o2)c1N [PD98059]	–	–	little effect	little effect	did not significantly inhibit	–	–	–	–	no significant decrease
C[S+]([O-])c1ccc(-c2nc(-c3ccc(F)cc3)c(-c3ccncc3)[nH]2)cc1 (stereo not drawn) [SB203580]	0.3	10.0	–	–	–	–	10.0	1.0	dose dependent inhibition of TRAP activity	–
